According to PMC3265452 (PLoS Neglected Tropical Diseases, 2012):
Structures can show the parent of a compound that is named as a salt. Where two headings read alike, the source gives them in different places.

Target: AaDOP2 (Aedes aegypti, UniProt H6D5H2)
Experiment: AaDOP2 antagonist screen of the LOPAC1280 library (HEK-CRELuc-Aadop2 cells, luminescence)
Type: cell-based
Conditions: for inhibition at 10 µM: read-out: % of the SCH23390 effect (percent inhibition of receptor response relative to the SCH23390 control)
[1] = 10 µM compound, 300 nM dopamine, 2 hr, hit = compound effect <20

AaDOP2, sequence (H6D5H2 1-476): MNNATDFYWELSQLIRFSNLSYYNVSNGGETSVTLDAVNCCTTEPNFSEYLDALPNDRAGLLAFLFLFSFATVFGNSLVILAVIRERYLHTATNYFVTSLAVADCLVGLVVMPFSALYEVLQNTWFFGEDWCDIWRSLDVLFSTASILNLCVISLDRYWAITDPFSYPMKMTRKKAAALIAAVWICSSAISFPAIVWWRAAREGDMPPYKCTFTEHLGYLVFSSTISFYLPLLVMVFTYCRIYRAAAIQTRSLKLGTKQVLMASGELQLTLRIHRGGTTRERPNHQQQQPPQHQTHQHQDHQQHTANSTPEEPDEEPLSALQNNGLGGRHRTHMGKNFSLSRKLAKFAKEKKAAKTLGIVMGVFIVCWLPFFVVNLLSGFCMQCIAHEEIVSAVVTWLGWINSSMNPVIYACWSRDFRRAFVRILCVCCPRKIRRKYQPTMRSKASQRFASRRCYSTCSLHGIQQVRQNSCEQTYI

Compound | Compound effect (percent receptor signaling in presence of test compound, relative lux units relative to the SCH23390 control) | further results
CC(C(O)c1ccc(O)cc1)N1CCC(Cc2ccccc2)CC1.CC(C(O)c1ccc(O)cc1)N1CCC(Cc2ccccc2)CC1.O=C(O)C(O)C(O)C(=O)O (centres unmarked) [Compound 643, Ifenprodil tartrate] |  | Compound effect (percent receptor signaling in presence of test compound, relative lux units relative to the SCH23390 control) [1]: 64%
CCC(NC(C)C)C(O)c1ccc(O)c(O)c1.CS(=O)(=O)O (centres unmarked) [Compound 644, Isotharine mesylate] |  | Compound effect (percent receptor signaling in presence of test compound, relative lux units relative to the SCH23390 control) [1]: 115%
CCCC(=O)NCCc1c2n(c3ccc(OC)cc13)Cc1ccccc1-2 [Compound 647, IIK7] | 96 | 
CC(C)Cn1c(=O)n(C)c(=O)c2[nH]cnc21 [Compound 649, 3-Isobutyl-1-methylxanthine] | 129 | 
c1ccc2c(c1)OCC(C1=NCCN1)O2 (centres unmarked) [Compound 650, Idazoxan hydrochloride] | 103 | 
CC1CN(S(=O)(=O)c2cccc3cnccc23)CCN1.Cl.Cl (centres unmarked) [Compound 651, 1-(5-Isoquinolinylsulfonyl)-3-methylpiperazine dihydrochloride] | 100 | 
CC1CNCCN1S(=O)(=O)c1cccc2cnccc12.Cl.Cl (centres unmarked) [Compound 653, 1-(5-Isoquinolinylsulfonyl)-2-methylpiperazine dihydrochloride] | 29 | 
COc1ccc2c(c1)c(CC(=O)O)c(C)n2C(=O)c1ccc(Cl)cc1 [Compound 654, Indomethacin] | 100 | 
Nc1nc2[nH]c(=O)cnc2c(=O)[nH]1 [Compound 656, Isoxanthopterin] | 106 | 
CC(C)NNC(=O)c1ccncc1.O=P(O)(O)O [Compound 657, Iproniazid phosphate] |  | Compound effect (percent receptor signaling in presence of test compound, relative lux units relative to the SCH23390 control) [1]: 97%
CC(=N)NCCCC[C@H](N)C(=O)O.Cl [Compound 659, L-N6-(1-Iminoethyl)lysine hydrochloride] | 101 | 
N[C@@H](Cc1ccc(O)c(I)c1)C(=O)O [Compound 660, 3-Iodo-L-tyrosine] | 100 | 
CC(=N)NCCC[C@H](N)C(=O)O.Cl [Compound 661, L-N5-(1-Iminoethyl)ornithine hydrochloride] | 102 | 
CC[C@H](C)[C@H]1O[C@]2(CC[C@@H]1C)C[C@@H]1C[C@@H](C/C=C(\C)[C@@H](O[C@H]3C[C@H](OC)[C@@H](O[C@H]4C[C@H](OC)[C@@H](O)[C@H](C)O4)[C@H](C)O3)[C@@H](C)/C=C/C=C3\CO[C@@H]4[C@H](O)C(C)=C[C@@H](C(=O)O1)[C@]34O)O2 [Compound 662, Ivermectin] | 101 | 
CCn1ccnc1CC1COc2ccccc2O1 (centres unmarked) [Compound 663, Imiloxan hydrochloride] | 96 | 
Cc1cc(C)c(NC(=O)C[C@H](CC(=O)O)c2cccc3ccccc23)c(C(=O)N2CCC3(CCCC3)CC2)c1 [Compound 664, CR 2945] | 101 | 
NC(N)=NCc1cccc(I)c1.NC(N)=NCc1cccc(I)c1.O=S(=O)(O)O [Compound 665, m-Iodobenzylguanidine hemisulfate] |  | Compound effect (percent receptor signaling in presence of test compound, relative lux units relative to the SCH23390 control) [1]: 96%
CC(C)Cc1ccc([C@H](C)C(=O)O)cc1 [Compound 666, S(+)-Ibuprofen] | 102 | 
Cl.Clc1cc(I)cc(Cl)c1NC1=NCCN1 [Compound 667, p-Iodoclonidine hydrochloride] |  | Compound effect (percent receptor signaling in presence of test compound, relative lux units relative to the SCH23390 control) [1]: 83%
C[C@@]1(C2CCCC2)Cc2cc(OCC(=O)O)c(Cl)c(Cl)c2C1=O [Compound 668, R(+)-IAA-94] | 100 | 
CN[C@@H]1C[C@@H](c2ccc(Cl)c(Cl)c2)c2ccccc21 [Compound 669, Indatraline hydrochloride] | 54 | 
CC(C)NC(C)Cc1ccc(I)cc1 (centres unmarked) [Compound 670, Iofetamine hydrochloride] | 90 | 
CN(C(=O)Cc1ccc(Cl)c(Cl)c1)C(CN1CCCC1)c1cccc(OCC(=O)O)c1.Cl (centres unmarked) [Compound 671, ICI 204,448 hydrochloride] | 97 | 
Cc1ccc(OCC(O)C(C)NC(C)C)c2c1CCC2.Cl (centres unmarked) [Compound 672, ICI 118,551 hydrochloride] |  | Compound effect (percent receptor signaling in presence of test compound, relative lux units relative to the SCH23390 control) [1]: 92%
N=C(N)SCCc1cnc[nH]1 [Compound 673, Imetit dihydrobromide] | 91 | 

Compound | Compound effect (percent receptor signaling in presence of test compound, relative lux units relative to the SCH23390 control) | further results
Oc1cccc2c(O)nccc12 [Compound 674, 1,5-Isoquinolinediol] | 92 | 
CCN1CCC[C@H]1CNC(=O)c1c(OC)ccc(I)c1O [Compound 675, S(-)-IBZM] |  | Compound effect (percent receptor signaling in presence of test compound, relative lux units relative to the SCH23390 control) [1]: 85%
CNC(=O)[C@H]1O[C@@H](n2cnc3c(NCc4cccc(I)c4)ncnc32)[C@H](O)[C@@H]1O [Compound 676, IB-MECA] | 105 | 
COc1ccc2c(c1)c(CC(=O)N1CCOCC1)c(C)n2C(=O)c1ccc(Cl)cc1 [Compound 677, Indomethacin morpholinylamide] | 89 | 
Cl.Fc1ccc(C(OCCCc2c[nH]cn2)c2ccc(F)cc2)cc1 [Compound 678, 3-(1H-Imidazol-4-yl)propyl di(p-fluorophenyl)methyl ether hydrochloride] | 52 | 
O=C(O)C1CCNCC1 [Compound 679, Isonipecotic acid] | 94 | 
CCCn1c(C)c(C(=O)c2cccc3ccccc23)c2ccccc21 [Compound 680, JWH-015] | 73 | 
Cc1ccc2c(c1)C(N1CCN(C)CC1)=Nc1cccnc1N2 [Compound 681, JL-18] | 2 | % of the SCH23390 effect (percent inhibition of receptor response relative to the SCH23390 control): 98%
C=C(C)[C@H]1CN[C@H](C(=O)O)[C@H]1CC(=O)O [Compound 682, Kainic acid] | 98 | 
CC(=O)N1CCN(c2ccc(OCC3COC(Cn4ccnc4)(c4ccc(Cl)cc4Cl)O3)cc2)CC1 (centres unmarked) [Compound 683, Ketoconazole] | 85 | 
NC(CO)(CO)CO.O=C(c1ccccc1)c1ccc2n1CCC2C(=O)O (centres unmarked) [Compound 684, Ketorolac tris salt] |  | Compound effect (percent receptor signaling in presence of test compound, relative lux units relative to the SCH23390 control) [1]: 98%
CC(C(=O)O)c1cccc(C(=O)c2ccccc2)c1 (centres unmarked) [Compound 685, Ketoprofen] | 101 | 
CCCC(=O)NCCc1c2n(c3ccc(OC)cc13)CCCc1ccccc1-2 [Compound 686, K 185] | 80 | 
CN1CCC(=C2c3ccccc3CC(=O)c3sccc32)CC1 [Compound 687, Ketotifen fumarate] | 4 | inhibition at 10 µM: 96%
O=C(O)c1cc(=O)c2ccccc2[nH]1 [Compound 688, Kynurenic acid] | 99 | 
O=C1Cc2c([nH]c3ccc(Br)cc23)-c2ccccc2N1 [Compound 689, Kenpaullone] | 17 | inhibition at 10 µM: 83%
CCN1C[C@]2(C)CC[C@H](O)[C@]34C1[C@@H](C[C@H]23)[C@@]1(O)C[C@H](OC)[C@H]2C[C@@H]4[C@@H]1[C@H]2O [Compound 690, Karakoline] | 101 | 
O=c1[nH]c2cc(Cl)ccc2c(O)c1-c1cccc(Oc2ccccc2)c1 [Compound 691, L-701,324] | 90 | 
CC(C(=O)O)c1ccc(CC2CCCC2=O)cc1 (centres unmarked) [Compound 692, loxoprofen] | 92 | 
CC(CCc1ccccc1)NCC(O)c1ccc(O)c(C(N)=O)c1 (centres unmarked) [Compound 693, Labetalol hydrochloride] | 83 | 
CCCCOC(=O)NS(=O)(=O)c1sc(CC(C)C)cc1-c1ccc(Cn2c(CC)nc3c(C)cc(C)nc32)cc1 [Compound 694, L-162,313] | 99 | 
CC[N+](C)(CC)CC(=O)Nc1c(C)cccc1C.[Cl-] [Compound 695, Lidocaine N-methyl hydrochloride] | 92 | 
CC1(C)CCC2=C(O1)c1ccccc1C(=O)C2=O [Compound 696, beta-Lapachone] | 14 | inhibition at 10 µM: 86%
O=S1(=O)N(CCN2CC=C(c3c[nH]c4cc(F)ccc34)CC2)c2cccc3c2N1CCC3 [Compound 697, LY-367,265] | 29 | 
